The values that follow come from US10618875B2 (priority 2017, dated 2020).

The structures appear in SMILES notation. Structures can show the parent of a compound that is named as a salt.

The conditions of data set [1]: mouse, in vivo.
For data set [2] the following is noted: in vivo.
The next data set concerns NCI-60 cell lines. Nature of the data set: cells. The data set is classed as cell-based, human.
Data set [3] concerns Hep3B-luc human liver tumor. Set-up: species or system BALB/c nude mice. The conditions noted are these: mouse.

`O=[N+]([O-])c1ccc(O)c([N+](=O)[O-])c1` [DNP, 2,4-dinitrophenol]: the blood creatinine result in data set [1] is reported as “raised blood creatinine”. In data set [2] (male, C57BL/6, mouse), the animals that died was 50%. The LD50 in data set [2] (mouse, po) came out at 100 mpk. Besides, in the data set on NCI-60 cell lines, the “delta of growth percent across all cell lines tested” value is 28.44% and the “range of growth percent across all cell lines” value amounted to 44.43%. For the same compound, the activity at 10 µM in the data set with NCI-60 cell lines (Homo sapiens, 48 h, read-out: mean growth percent of control across the NCI-60) came out at 98.4%. Moreover, in the data set on NCI-60 cell lines (Homo sapiens, read-out: growth inhibition in any of the NCI-60 cell lines), the inhibition – broadly, how much of the control response was suppressed – at 10 µM was less than 50%.

`CNC(=O)c1cc(Oc2ccc(NC(=O)Nc3ccc(Cl)c(C(F)(F)F)c3)cc2)ccn1` [Sorafenib, Sorafenib Tosylate]: in data set [3], the “BLI (in vivo bioluminescence) of Hep3B-luc tumor” value was “showed a trend toward having an effects on decreasing BLI”.
